Test results reported in PubChem BioAssay (NCI).
Several values for one entry are separate records, joined by “and”; a condition that tells them apart may be missing. Equal entries are not always repeated.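 Five compound concentrations were applied to cells in 96-well plates for 48 hours; endpoints were derived by simple linear interpolation of the resulting dose-response curve. At the GI50, growth is halved. TGI denotes the concentration required for complete inhibition of growth.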

Tested on: SK-MEL-5 melanoma
Assay: growth of human tumour cells (NCI), 48 h

Row | Compound | GI50 | TGI
1 | C=CCO[C@H]1CO[C@H]2[C@@H]1OC[C@@H]2Oc1ccc(Nc2ccnc(Nc3ccc(O[C@H]4CO[C@H]5[C@@H]4OC[C@@H]5OCC=C)c(Cl)c3)n2)cc1Cl | 1.46 µM | 2.8 µM
2 | C[C@@H](Oc1cc(-n2cnc3ccc(CN4CCN(C)CC4)cc32)sc1C(N)=O)c1ccccc1C(F)(F)F | 0.0218 µM and 0.0976 µM | 1.51 µM and > 10 µM
3 | O=C(CCNC12CC3CC(CC(C3)C1)C2)c1ccccc1 | – | 32.7 µM
4 | COc1cccc(-c2cc(-c3cccc(NS(C)(=O)=O)c3)nc(N)c2C#N)c1O | 0.0747 µM | 3.93 µM
5 | Cc1ccsc1C(=S)Nc1ccc(Cl)c(/C=N/OC(C)(C)C)c1 | – | > 100 µM
6 | CC(C)=CCC\C(C)=C/C=C/C(C)=C\C=C\C(C)=C/C=C/C=C(C)\C=C\C=C(C)/C=C/C=C(/C)CCC=C(C)C | – | > 100 µM
7 | NC(N)=NS(=O)(=O)c1ccc(Nc2c3ccccc3nc3c(C(=O)NCCO)cccc23)cc1 | 15.6 µM | –
8 | COc1cccc(C2c3cc4c(cc3OC(C)(N3CCCC3)C2C)OCO4)c1O (configuration not stated) | – | 13.3 µM
9 | O=C1NC(=NCCc2cccc(F)c2)S/C1=C\c1ccc2ncccc2c1 | 3.41 µM | > 25 µM
10 | COc1cc(/C=N\NC(=O)CN2CCN(c3cc4c(cc3F)c(=O)c(C(=O)N/N=C/c3cc(OC)c(OC)c(OC)c3)cn4C3CC3)CC2)cc(OC)c1OC | 0.417 µM | 5.1 µM
11 | CC1CCc2nc[nH]c(=O)c21 (configuration not stated) | > 100 µM | > 100 µM
12 | Cc1ccc(NC(=O)Nc2ccc(-c3cccnc3)cc2N2CCC(CO)CC2)cc1 | 1.68 µM | 3.27 µM

Tested on: MCF7 breast
Assay: growth of human tumour cells (NCI), 48 h

Row | Compound | GI50 | TGI
13 | CN(C)c1ccc(/C=C\C2=[N+](C)c3ccccc3C2(C)C)cc1 | 0.455 µM | 30.7 µM
14 | COc1cc2c(c3oc4c(O)cccc4c(=O)c13)CC(C(C)(O)CO)O2 (configuration not stated) | – | 70.8 µM
15 | CC(=O)OC1OC([C@@H]2c3cccc(O)c3C(=O)c3c(O)cc(C)cc32)C(O)C(O)C1O (some centres not stated) | 0.282 µM | 2.78 µM
16 | C[N+](C)(C)CC(=O)N/N=C(/CC(=O)CC(C1=C(O)c2ccccc2OC1)c1ccccc1)C(=O)Nc1cccc(Cl)c1 (configuration not stated) | – | > 100 µM
17 | O=C1/C(=C/c2ccc(O)c(O)c2)CCC/C1=C\c1ccc(O)c(O)c1 | – | > 48.2 µM
18 | COC(=O)/C=C1\S/C(=N\NC(=O)c2cc3ccc2/C=C\c2ccc(cc2)/C=C\3)N(c2ccccc2)C1=O | 1.87 µM | 4.95 µM
19 | COC([CH2][Hg][n]1cnc2c1c(=O)n(C)c(=O)n2C)CN1C(=O)c2ccccc2S1(=O)=O (configuration not stated) | > 100 µM | > 100 µM
20 | CN1CCCCC1CCN1c2ccccc2Sc2ccc(Cl)cc21 (configuration not stated) | 2.68 µM | 9 µM
21 | C=C(C)C(OC)C(O)CC1(C)CC(O)CC(C)(C2CCC3OC(C4(C)CCC(Br)C(C)(C)O4)CCC3(C)O2)O1 (configuration not stated) | 19.9 µM | 42.3 µM
22 | Cc1cc(-c2nc(C(=O)Nc3cc4oc(N5CCOCC5)nc4nc3N3CC[C@@H](O)C3)co2)ccn1 | 84.1 µM | > 100 µM
23 | Cc1ccc(Cl)c2c(N=Nc3ccccc3[N+](=O)[O-])c(O)[nH]c12 | – | > 100 µM
24 | FC(F)(F)c1cccc(Nc2nc(-c3ccccc3)nc3ncccc23)c1 | 3.72 µM | 14.7 µM
25 | O=C(Nc1ccccc1)c1c(O)[nH]c(=S)[nH]c1=O | – | 92.8 µM
26 | OC1CSSC1Cn1cnc2c(Nc3ccc(OCc4cccc(F)c4)c(Cl)c3)ncnc21 (configuration not stated) | 0.509 µM | 1.29 µM
27 | C=CCOc1ccc2c(C)cc(=O)oc2c1C | – | > 100 µM
28 | Nc1c(C(=O)c2cccc(CCS(N)(=O)=O)c2)cnn1-c1ccc(F)cc1 | > 25 µM | > 25 µM
29 | C=CCO[C@H]1CO[C@H]2[C@@H]1OC[C@@H]2Oc1ccc(Nc2ccnc(Nc3ccc(O[C@H]4CO[C@H]5[C@@H]4OC[C@@H]5OCC=C)c(Cl)c3)n2)cc1Cl | 1.56 µM | 3.38 µM
30 | C[C@@H](Oc1cc(-n2cnc3ccc(CN4CCN(C)CC4)cc32)sc1C(N)=O)c1ccccc1C(F)(F)F | < 0.01 µM and 0.00478 µM | 15.2 µM and > 10 µM
31 | O=C(CCNC12CC3CC(CC(C3)C1)C2)c1ccccc1 | – | 34.9 µM
32 | COc1cccc(-c2cc(-c3cccc(NS(C)(=O)=O)c3)nc(N)c2C#N)c1O | 0.279 µM | > 100 µM
33 | Cc1ccsc1C(=S)Nc1ccc(Cl)c(/C=N/OC(C)(C)C)c1 | – | > 100 µM
34 | CC(C)=CCC\C(C)=C/C=C/C(C)=C\C=C\C(C)=C/C=C/C=C(C)\C=C\C=C(C)/C=C/C=C(/C)CCC=C(C)C | – | > 100 µM
35 | NC(N)=NS(=O)(=O)c1ccc(Nc2c3ccccc3nc3c(C(=O)NCCO)cccc23)cc1 | 13.5 µM | –
36 | COc1cccc(C2c3cc4c(cc3OC(C)(N3CCCC3)C2C)OCO4)c1O (configuration not stated) | – | > 37.1 µM
37 | O=C1NC(=NCCc2cccc(F)c2)S/C1=C\c1ccc2ncccc2c1 | 0.766 µM | > 25 µM
38 | COc1cc(/C=N\NC(=O)CN2CCN(c3cc4c(cc3F)c(=O)c(C(=O)N/N=C/c3cc(OC)c(OC)c(OC)c3)cn4C3CC3)CC2)cc(OC)c1OC | 0.362 µM | > 100 µM
39 | CC1CCc2nc[nH]c(=O)c21 (configuration not stated) | > 100 µM | > 100 µM
40 | Cc1ccc(NC(=O)Nc2ccc(-c3cccnc3)cc2N2CCC(CO)CC2)cc1 | 1.59 µM | > 100 µM

Tested on: NCI/ADR-RES ovarian
Assay: growth of human tumour cells (NCI), 48 h

Row | Compound | GI50 | TGI
41 | CN(C)c1ccc(/C=C\C2=[N+](C)c3ccccc3C2(C)C)cc1 | 10.6 µM | > 61.6 µM
42 | COc1cc2c(c3oc4c(O)cccc4c(=O)c13)CC(C(C)(O)CO)O2 (configuration not stated) | – | > 100 µM
43 | CC(=O)OC1OC([C@@H]2c3cccc(O)c3C(=O)c3c(O)cc(C)cc32)C(O)C(O)C1O (some centres not stated) | 0.0391 µM | 0.773 µM
44 | C[N+](C)(C)CC(=O)N/N=C(/CC(=O)CC(C1=C(O)c2ccccc2OC1)c1ccccc1)C(=O)Nc1cccc(Cl)c1 (configuration not stated) | – | > 100 µM
45 | O=C1/C(=C/c2ccc(O)c(O)c2)CCC/C1=C\c1ccc(O)c(O)c1 | – | 23.8 µM
46 | COC(=O)/C=C1\S/C(=N\NC(=O)c2cc3ccc2/C=C\c2ccc(cc2)/C=C\3)N(c2ccccc2)C1=O | 2.92 µM | 10.6 µM
47 | COC([CH2][Hg][n]1cnc2c1c(=O)n(C)c(=O)n2C)CN1C(=O)c2ccccc2S1(=O)=O (configuration not stated) | > 100 µM | > 100 µM
48 | CN1CCCCC1CCN1c2ccccc2Sc2ccc(Cl)cc21 (configuration not stated) | 2.89 µM | 7.62 µM
49 | C=C(C)C(OC)C(O)CC1(C)CC(O)CC(C)(C2CCC3OC(C4(C)CCC(Br)C(C)(C)O4)CCC3(C)O2)O1 (configuration not stated) | 18.3 µM | 39.6 µM
50 | Cc1cc(-c2nc(C(=O)Nc3cc4oc(N5CCOCC5)nc4nc3N3CC[C@@H](O)C3)co2)ccn1 | > 100 µM | > 100 µM
51 | Cc1ccc(Cl)c2c(N=Nc3ccccc3[N+](=O)[O-])c(O)[nH]c12 | – | > 100 µM
52 | FC(F)(F)c1cccc(Nc2nc(-c3ccccc3)nc3ncccc23)c1 | 4.07 µM | 23.5 µM
53 | O=C(Nc1ccccc1)c1c(O)[nH]c(=S)[nH]c1=O | – | 83.8 µM
54 | OC1CSSC1Cn1cnc2c(Nc3ccc(OCc4cccc(F)c4)c(Cl)c3)ncnc21 (configuration not stated) | 3.26 µM | 12.3 µM
55 | C=CCOc1ccc2c(C)cc(=O)oc2c1C | – | > 100 µM
56 | Nc1c(C(=O)c2cccc(CCS(N)(=O)=O)c2)cnn1-c1ccc(F)cc1 | > 25 µM | > 25 µM
57 | C=CCO[C@H]1CO[C@H]2[C@@H]1OC[C@@H]2Oc1ccc(Nc2ccnc(Nc3ccc(O[C@H]4CO[C@H]5[C@@H]4OC[C@@H]5OCC=C)c(Cl)c3)n2)cc1Cl | 1.78 µM | 3.85 µM
58 | C[C@@H](Oc1cc(-n2cnc3ccc(CN4CCN(C)CC4)cc32)sc1C(N)=O)c1ccccc1C(F)(F)F | 0.162 µM and 0.2 µM | 14.3 µM and > 10 µM
59 | O=C(CCNC12CC3CC(CC(C3)C1)C2)c1ccccc1 | – | 59.8 µM
60 | COc1cccc(-c2cc(-c3cccc(NS(C)(=O)=O)c3)nc(N)c2C#N)c1O | 0.154 µM | 2.34 µM
61 | Cc1ccsc1C(=S)Nc1ccc(Cl)c(/C=N/OC(C)(C)C)c1 | – | > 100 µM
62 | CC(C)=CCC\C(C)=C/C=C/C(C)=C\C=C\C(C)=C/C=C/C=C(C)\C=C\C=C(C)/C=C/C=C(/C)CCC=C(C)C | – | > 100 µM
63 | NC(N)=NS(=O)(=O)c1ccc(Nc2c3ccccc3nc3c(C(=O)NCCO)cccc23)cc1 | 48.7 µM | > 100 µM
64 | COc1cccc(C2c3cc4c(cc3OC(C)(N3CCCC3)C2C)OCO4)c1O (configuration not stated) | – | 11.8 µM
65 | O=C1NC(=NCCc2cccc(F)c2)S/C1=C\c1ccc2ncccc2c1 | 10.8 µM | > 25 µM
66 | COc1cc(/C=N\NC(=O)CN2CCN(c3cc4c(cc3F)c(=O)c(C(=O)N/N=C/c3cc(OC)c(OC)c(OC)c3)cn4C3CC3)CC2)cc(OC)c1OC | > 100 µM | > 100 µM
67 | CC1CCc2nc[nH]c(=O)c21 (configuration not stated) | > 100 µM | > 100 µM
68 | Cc1ccc(NC(=O)Nc2ccc(-c3cccnc3)cc2N2CCC(CO)CC2)cc1 | 3.62 µM | > 100 µM

Tested on: RXF 393 renal
Assay: growth of human tumour cells (NCI), 48 h

Row | Compound | GI50 [µM] | TGI [µM]
69 | CN(C)c1ccc(/C=C\C2=[N+](C)c3ccccc3C2(C)C)cc1 | 1.45 | 27.7
